For eleven compounds, TGI results are on record in PubChem BioAssay (NCI).

Structures are written as SMILES.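 Cells were grown in 96-well plates and exposed to each compound for 48 hours at five concentrations; endpoints were interpolated linearly between bracketing concentrations, or set to the highest concentration if not reached. TGI: total growth inhibition.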 Some results are limits rather than exact numbers.

In the first experiment the test system is EKVX NSCLC. In words: DTP human tumour cell line panel, 48 h.
For the compound `Cc1cccc(/C=N/NC(=S)Nc2ccccc2)n1`, the TGI (in general, the concentration at which net growth stops) is above 49.3 µM.
On the same count and under the same terms, the figure for `Oc1ccc(-c2nc(-c3cccnc3)c(-c3ccc(F)cc3)[nH]2)cc1` is 41.7 µM; for `CCC1(O)CC2CC(=O)OC2C1O` (stereo unspecified) it is above 100 µM.
Same read-out and setting: the figure for `CC(C)/C(Cl)=N\OC(=O)Nc1ccc(S(N)(=O)=O)cc1` is 32.6 µM; for `NC(=O)C(c1ccccc1)N1OC2C(=O)N(c3ccccc3)C(=O)C2C1c1c2ccccc2c(Cl)c2ccccc12` (stereo unspecified) it is above 100 µM; for `N#CC1=C(N)N(c2ccccc2)C(c2ccco2)C1(C#N)C#N` (stereo unspecified) it is 73.3 µM.
Same read-out and setting: the figure for `COC(=O)[C@H]1CO[C@@H](C(C)(C)C)N1C(=O)N1C=CC(=O)C[C@@H]1C` is above 100 µM; for `N=c1n(C(=O)N2CCCC2)c2cc(Cl)ccc2n1C1=NCCN1` it is above 100 µM; for `COc1c(C)c(C/C=C(\C)CCCCO[Si](c2ccccc2)(c2ccccc2)C(C)(C)C)c(OC)c(OC)c1OC` it is above 31.6 µM.
Consider `CC(C)CC(=O)OC[n+]1ccc(-c2c(COC(=O)NC(C)C)c(COC(=O)NC(C)C)c3n2CCC3)cc1`, for which the TGI is above 100 µM.
Regarding `O=[N+]([O-])C(=C1NCCN1)/C(Cl)=C(\Cl)Br`, the TGI was above 60.5 µM.

The test system of another experiment is K-562 leukemia. Kind of experiment: DTP human tumour cell line panel, 48 h.
As for `Cc1cccc(/C=N/NC(=S)Nc2ccccc2)n1`, the TGI was above 100 µM.
Same read-out and setting: the figure for `Oc1ccc(-c2nc(-c3cccnc3)c(-c3ccc(F)cc3)[nH]2)cc1` is 54.6 µM; for `CCC1(O)CC2CC(=O)OC2C1O` (stereo unspecified) it is above 100 µM; for `CC(C)/C(Cl)=N\OC(=O)Nc1ccc(S(N)(=O)=O)cc1` it is 5.52 µM.
On to `NC(=O)C(c1ccccc1)N1OC2C(=O)N(c3ccccc3)C(=O)C2C1c1c2ccccc2c(Cl)c2ccccc12` (stereo unspecified), for which the TGI was above 100 µM.
Still for that read-out and setting: the figure for `N#CC1=C(N)N(c2ccccc2)C(c2ccco2)C1(C#N)C#N` (stereo unspecified) is 37.5 µM; for `COC(=O)[C@H]1CO[C@@H](C(C)(C)C)N1C(=O)N1C=CC(=O)C[C@@H]1C` it is above 100 µM.
Same read-out and setting: the figure for `N=c1n(C(=O)N2CCCC2)c2cc(Cl)ccc2n1C1=NCCN1` is above 100 µM; for `COc1c(C)c(C/C=C(\C)CCCCO[Si](c2ccccc2)(c2ccccc2)C(C)(C)C)c(OC)c(OC)c1OC` it is above 46.4 µM.
The compound `CC(C)CC(=O)OC[n+]1ccc(-c2c(COC(=O)NC(C)C)c(COC(=O)NC(C)C)c3n2CCC3)cc1` yielded a TGI above 100 µM.
On the same count and under the same terms, the figure for `O=[N+]([O-])C(=C1NCCN1)/C(Cl)=C(\Cl)Br` is 31.2 µM.

The subject of a further experiment is OVCAR-5 ovarian. Kind of experiment: DTP human tumour cell line panel, 48 h.
For the compound `Cc1cccc(/C=N/NC(=S)Nc2ccccc2)n1`, the TGI is above 100 µM.
For `Oc1ccc(-c2nc(-c3cccnc3)c(-c3ccc(F)cc3)[nH]2)cc1`, the total growth inhibition concentration (TGI) is 68 µM.
On to `CCC1(O)CC2CC(=O)OC2C1O` (stereo unspecified), for which the TGI was above 100 µM.
The same measure, in the same setting: the figure for `CC(C)/C(Cl)=N\OC(=O)Nc1ccc(S(N)(=O)=O)cc1` is 33.8 µM.
The same measure, in the same setting: under `NC(=O)C(c1ccccc1)N1OC2C(=O)N(c3ccccc3)C(=O)C2C1c1c2ccccc2c(Cl)c2ccccc12` (stereo unspecified) stands above 100 µM; under `N#CC1=C(N)N(c2ccccc2)C(c2ccco2)C1(C#N)C#N` (stereo unspecified), 48.4 µM; under `COC(=O)[C@H]1CO[C@@H](C(C)(C)C)N1C(=O)N1C=CC(=O)C[C@@H]1C`, above 100 µM.
The same measure, in the same setting: under `N=c1n(C(=O)N2CCCC2)c2cc(Cl)ccc2n1C1=NCCN1` stands above 100 µM; under `COc1c(C)c(C/C=C(\C)CCCCO[Si](c2ccccc2)(c2ccccc2)C(C)(C)C)c(OC)c(OC)c1OC`, above 46.4 µM; under `CC(C)CC(=O)OC[n+]1ccc(-c2c(COC(=O)NC(C)C)c(COC(=O)NC(C)C)c3n2CCC3)cc1`, above 100 µM.
Turning to `O=[N+]([O-])C(=C1NCCN1)/C(Cl)=C(\Cl)Br`, the TGI was above 100 µM.

The subject of another experiment is PC-3 prostate. Kind of experiment: DTP human tumour cell line panel, 48 h.
Compound `Cc1cccc(/C=N/NC(=S)Nc2ccccc2)n1` returned a concentration for total growth inhibition (TGI) above 91.1 µM.
The same measure, in the same setting: the figure for `Oc1ccc(-c2nc(-c3cccnc3)c(-c3ccc(F)cc3)[nH]2)cc1` is 35.2 µM; for `CCC1(O)CC2CC(=O)OC2C1O` (stereo unspecified) it is above 100 µM; for `CC(C)/C(Cl)=N\OC(=O)Nc1ccc(S(N)(=O)=O)cc1` it is 32.6 µM.
Same read-out and setting: the figure for `NC(=O)C(c1ccccc1)N1OC2C(=O)N(c3ccccc3)C(=O)C2C1c1c2ccccc2c(Cl)c2ccccc12` (stereo unspecified) is above 100 µM; for `N#CC1=C(N)N(c2ccccc2)C(c2ccco2)C1(C#N)C#N` (stereo unspecified) it is 60.5 µM.
On the same count and under the same terms, under `COC(=O)[C@H]1CO[C@@H](C(C)(C)C)N1C(=O)N1C=CC(=O)C[C@@H]1C` stands above 100 µM.
`N=c1n(C(=O)N2CCCC2)c2cc(Cl)ccc2n1C1=NCCN1` yielded a TGI above 100 µM.
The same measure, in the same setting: under `COc1c(C)c(C/C=C(\C)CCCCO[Si](c2ccccc2)(c2ccccc2)C(C)(C)C)c(OC)c(OC)c1OC` stands above 100 µM.
The same measure, in the same setting: under `CC(C)CC(=O)OC[n+]1ccc(-c2c(COC(=O)NC(C)C)c(COC(=O)NC(C)C)c3n2CCC3)cc1` stands above 100 µM; under `O=[N+]([O-])C(=C1NCCN1)/C(Cl)=C(\Cl)Br`, above 100 µM.

A further experiment has as its system 786-0 renal. Kind of experiment: DTP human tumour cell line panel, 48 h.
`Cc1cccc(/C=N/NC(=S)Nc2ccccc2)n1` yielded a TGI of 9.14 µM.
Still for that read-out and setting: the figure for `Oc1ccc(-c2nc(-c3cccnc3)c(-c3ccc(F)cc3)[nH]2)cc1` is 59 µM.
`CCC1(O)CC2CC(=O)OC2C1O` (stereo unspecified) showed a TGI above 100 µM.
On the same count and under the same terms, the figure for `CC(C)/C(Cl)=N\OC(=O)Nc1ccc(S(N)(=O)=O)cc1` is 31 µM; for `NC(=O)C(c1ccccc1)N1OC2C(=O)N(c3ccccc3)C(=O)C2C1c1c2ccccc2c(Cl)c2ccccc12` (stereo unspecified) it is above 100 µM.
Turning to `N#CC1=C(N)N(c2ccccc2)C(c2ccco2)C1(C#N)C#N` (stereo unspecified), the TGI worked out at 35.1 µM.
Still for that read-out and setting: the figure for `COC(=O)[C@H]1CO[C@@H](C(C)(C)C)N1C(=O)N1C=CC(=O)C[C@@H]1C` is above 100 µM.
On the same count and under the same terms, the figure for `N=c1n(C(=O)N2CCCC2)c2cc(Cl)ccc2n1C1=NCCN1` is above 100 µM.
As to `COc1c(C)c(C/C=C(\C)CCCCO[Si](c2ccccc2)(c2ccccc2)C(C)(C)C)c(OC)c(OC)c1OC`, the TGI was 40.5 µM.
Consider `CC(C)CC(=O)OC[n+]1ccc(-c2c(COC(=O)NC(C)C)c(COC(=O)NC(C)C)c3n2CCC3)cc1`, for which the concentration for total growth inhibition (TGI) is above 100 µM.
On the same count and under the same terms, the figure for `O=[N+]([O-])C(=C1NCCN1)/C(Cl)=C(\Cl)Br` is 33.5 µM.

A further experiment deals with NCI-H226 lung. Kind of experiment: DTP human tumour cell line panel, 48 h.
For the compound `Cc1cccc(/C=N/NC(=S)Nc2ccccc2)n1`, the TGI was above 25 µM.
With `Oc1ccc(-c2nc(-c3cccnc3)c(-c3ccc(F)cc3)[nH]2)cc1`, the TGI stood at 46.8 µM.
Still for that read-out and setting: the figure for `CCC1(O)CC2CC(=O)OC2C1O` (stereo unspecified) is above 100 µM; for `CC(C)/C(Cl)=N\OC(=O)Nc1ccc(S(N)(=O)=O)cc1` it is 45.5 µM.
On the same count and under the same terms, under `NC(=O)C(c1ccccc1)N1OC2C(=O)N(c3ccccc3)C(=O)C2C1c1c2ccccc2c(Cl)c2ccccc12` (stereo unspecified) stands above 100 µM; under `N#CC1=C(N)N(c2ccccc2)C(c2ccco2)C1(C#N)C#N` (stereo unspecified), 42 µM.
On the same count and under the same terms, under `COC(=O)[C@H]1CO[C@@H](C(C)(C)C)N1C(=O)N1C=CC(=O)C[C@@H]1C` stands above 100 µM; under `N=c1n(C(=O)N2CCCC2)c2cc(Cl)ccc2n1C1=NCCN1`, above 100 µM.
As to `COc1c(C)c(C/C=C(\C)CCCCO[Si](c2ccccc2)(c2ccccc2)C(C)(C)C)c(OC)c(OC)c1OC`, the TGI was above 100 µM.
On the same count and under the same terms, under `CC(C)CC(=O)OC[n+]1ccc(-c2c(COC(=O)NC(C)C)c(COC(=O)NC(C)C)c3n2CCC3)cc1` stands above 100 µM; under `O=[N+]([O-])C(=C1NCCN1)/C(Cl)=C(\Cl)Br`, above 100 µM.
